In patent US4364958A, “1-Substituted-3-cycloalkyl-sulfonyl-pyrrolidine-2,5-dione derivatives and fungicidal compositions thereof” (Chinoin Gyogyszer es Vegyeszeti Termekek Gyara Rt., priority 1979, dated 1982):
Values after ≈ are worked out from the molar mass of the structure shown. Read-outs that look alike come from different tables or passages of the source.

Experiments:
[1] = system: Saccharomyces cerevisiae OKI.1282; assay: minimal inhibitory concentration in Sabouraud medium; assay type: cell-based; settings: Saccharomyces cerevisiae, OKI.1282, 48 h, 48 hours
From the text: Saccharomyces cerevisiae OKI.1282
(§1) As a medium Saboroud medium was employed.

[2] = system: Trichophyton mentagrophytes CBS.50148; assay: as above; assay type: cell-based; settings: Trichophyton mentagrophytes
From the text: Trichophyton mentagrophytes CBS.50148
as §1

Ascochyta pisi = assay: activity against phytopathogenic fungi; assay type: cell-based
Candida albicans CBS.562 = assay: minimal inhibitory concentration in Sabouraud medium; assay type: cell-based; settings: 48 hours
From the text: Candida albicans CBS.562 "2"
as §1

[3] = system: Trichophyton rubrum CBS.30338; assay: as above; assay type: cell-based; settings: for MIC: Trichophyton rubrum
From the text: Trichophyton rubrum CBS.30338
as §1

Candida krusei 79/K47 = assay: as above; settings: Pichia kudriavzevii, read-out: minimal inhibitory concentration
[4] = system: Aspergillus flavus CBS.24765; assay: as above; assay type: cell-based; settings: Aspergillus flavus
From the text: Aspergillus flavus CBS.24765
as §1

Phytophtora infestans = assay type: cell-based
Botrytis cinerea = assay: activity against phytopathogenic fungi; assay type: cell-based
Verticillium albo-atrum = assay: activity against phytopathogenic fungi; assay type: cell-based
[5] = system: Aspergillus niger CBS.12648; assay: minimal inhibitory concentration in Sabouraud medium; assay type: cell-based; settings: for MIC: Aspergillus niger
From the text: Aspergillus niger CBS.12648
as §1

Venturia = assay: activity against phytopathogenic fungi; assay type: cell-based
[6] = system: Penicillium digitatum CBS.31948; assay: minimal inhibitory concentration in Sabouraud medium; assay type: cell-based; settings: Penicillium digitatum
From the text: Penicillium digitatum CBS.31948
as §1

[7] = system: Cryptococcus neoform. 78/K16; assay: as above; settings: read-out: minimal inhibitory concentration
[8] = system: Fusarium oxysporum DSM.10975; assay: as above; assay type: cell-based
From the text: Fusarium oxysporum DSM.10975
as §1

[9] = system: Penicillium digitatum CCM.F-382; assay: as above; assay type: cell-based; settings: Penicillium digitatum
From the text: Penicillium digitatum CCM.F-382
as §1

Taphrina deformans = assay: activity against phytopathogenic fungi; assay type: cell-based
[10] = system: Epidermophyton floccosum OKI/IV.; assay: minimal inhibitory concentration in Sabouraud medium; assay type: cell-based; settings: for MIC: Epidermophyton floccosum, read-out: minimal inhibitory concentration
From the text: Epidermophyton floccosum OKI/IV.
as §1

[11] = system: Penicillium chrysogenium CCM.F-362; assay: as above; assay type: cell-based; settings: Penicillium
From the text: Penicillium chrysogenium CCM.F-362
as §1

[12] = system: Fusarium culmorum DSM.11425; assay: as above; assay type: cell-based
From the text: Fusarium culmorum DSM.11425
as §1

[13] = system: Sporotrichum schenkii CBS.34035; assay: as above; assay type: cell-based; settings: Sporotrichum
From the text: Sporotrichum schenkii CBS.34035
as §1

Sclerotinia sclerotiorum = assay: activity against phytopathogenic fungi; assay type: cell-based
[14] = system: Candida tropicalis CBS.433; assay: minimal inhibitory concentration in Sabouraud medium; assay type: cell-based; settings: Candida tropicalis
From the text: Candida tropicalis CBS.433 "3"
as §1

[15] = system: Aspergillus fumigatus CBS.11326; assay: as above; assay type: cell-based; settings: Aspergillus fumigatus
From the text: Aspergillus fumigatus CBS.11326
as §1

Candida humicola = assay: minimal inhibitory concentration, proliferating fungi; assay type: cell-based; settings: Vanrija humicola
From the text: as §1

[16] = system: Microsporum gypseum ver. vinosum CBS.10064; assay: minimal inhibitory concentration in Sabouraud medium; assay type: cell-based; settings: Nannizzia gypsea
From the text: Microsporum gypseum ver. vinosum CBS.10064
as §1

Cercospora beticola = assay: activity against phytopathogenic fungi; assay type: cell-based
[17] = system: Fusarium monoliforme DSM.11778; assay: minimal inhibitory concentration in Sabouraud medium; assay type: cell-based; settings: Fusarium
From the text: Fusarium monoliforme DSM.11778
as §1

[18] = system: Aspergillus niger CCM.F-330; assay: as above; assay type: cell-based; settings: Aspergillus niger
From the text: Aspergillus niger CCM.F-330
as §1

[19] = system: Fusarium graminocorum DSM.11802; assay: as above; assay type: cell-based
From the text: Fusarium graminocorum DSM.11802
as §1

Verticillium dahlise = assay: activity against phytopathogenic fungi; assay type: cell-based
[20] = system: Penicillium chrysogenium CBS.19646; assay: minimal inhibitory concentration in Sabouraud medium; assay type: cell-based; settings: Penicillium
From the text: Penicillium chrysogenium CBS.19646
as §1

Cc1ccc(N2C(=O)CC(S(=O)(=O)C3CCCCC3)C2=O)cc1 (stereo not shown)
MIC [1]: 25 µg/mL (≈ 74.5 µM)
MIC ([2]; CBS.50148, 72 h, 72 hours, read-out: minimal inhibitory concentration): 2.5 µg/mL (≈ 7.45 µM)
MIC ([2]; CBS.50148, 144 h, 144 hours, read-out: minimal inhibitory concentration): 2.5 µg/mL (≈ 7.45 µM)
MIC ([2]; CBS.50148, 288 h, 288 hours, read-out: minimal inhibitory concentration): 5 µg/mL (≈ 14.9 µM)
MIC ([2]; CBS.50148, read-out: Minimal inhibitory concentration inhibiting the growth): 2.5 µg/mL (≈ 7.45 µM)
activity against Ascochyta pisi (Ascochyta pisi): active
minimal inhibitory concentration (Candida albicans CBS.562): 25 µg/mL (≈ 74.5 µM)
MIC (Candida albicans CBS.562; Candida albicans, CBS.562, 48 h): 50 µg/mL (≈ 149 µM)
minimal inhibitory concentration ([3]; 144 hours): 2.5 µg/mL (≈ 7.45 µM)
minimal inhibitory concentration ([3]; 288 hours): 2.5 µg/mL (≈ 7.45 µM)
MIC ([3]; CBS.30338, 144 h, 144 hours): 5 µg/mL (≈ 14.9 µM)
MIC ([3]; CBS.30338, 288 h, 288 hours): 5 µg/mL (≈ 14.9 µM)
MIC (Candida krusei 79/K47; 79/K47, 24 h): 2.5 µg/mL (≈ 7.45 µM)
MIC (Candida krusei 79/K47; 79/K47, 48 h): 10 µg/mL (≈ 29.8 µM)
MIC ([4]; CBS.24765, 72 h, 72 hours): 150 µg/mL (≈ 447 µM)
MIC ([4]; CBS.24765, 144 h, 144 hours): 250 µg/mL (≈ 745 µM)
activity against Phytophtora infestans (Phytophtora infestans): active
activity against Botrytis cinerea (Botrytis cinerea): active
activity against Verticillium albo-atrum (Verticillium albo-atrum): active
minimal inhibitory concentration ([5]; 144 hours): 50 µg/mL (≈ 149 µM)
MIC ([5]; CBS.12648, 72 h, 72 hours): 25 µg/mL (≈ 74.5 µM)
MIC ([5]; CBS.12648, 144 h, 144 hours): 75 µg/mL (≈ 224 µM)
MIC ([5]; CBS.12648, 288 h, 288 hours): 75 µg/mL (≈ 224 µM)
activity against Venturia (Venturia): active
MIC ([6]; CBS.31948, 72 h, 72 hours): 10 µg/mL (≈ 29.8 µM)
MIC ([6]; CBS.31948, 144 h, 144 hours): 10 µg/mL (≈ 29.8 µM)
MIC ([6]; CBS.31948, 288 h, 288 hours): 10 µg/mL (≈ 29.8 µM)
MIC ([7]; 24 h): 1 µg/mL (≈ 2.98 µM)
MIC ([7]; 48 h): 10 µg/mL (≈ 29.8 µM)
MIC ([8]; 72 hours): 150 µg/mL (≈ 447 µM)
MIC ([8]; 144 hours): 200 µg/mL (≈ 596 µM)
MIC ([8]; 288 hours): 200 µg/mL (≈ 596 µM)
MIC ([9]; CCM.F382, 72 h, 72 hours): 25 µg/mL (≈ 74.5 µM)
MIC ([9]; CCM.F382, 144 h, 144 hours): 25 µg/mL (≈ 74.5 µM)
MIC ([9]; CCM.F382, 288 h, 288 hours): 75 µg/mL (≈ 224 µM)
activity against Taphrina deformans (Taphrina deformans): active
minimal inhibitory concentration ([10]; 72 hours): 2.5 µg/mL (≈ 7.45 µM)
MIC ([10]; 72 h): 5 µg/mL (≈ 14.9 µM)
MIC ([10]; 144 h): 5 µg/mL (≈ 14.9 µM)
MIC ([10]; 288 h): 5 µg/mL (≈ 14.9 µM)
MIC ([11]; CCM.F362, 72 h, 72 hours): 75 µg/mL (≈ 224 µM)
MIC ([11]; CCM.F362, 144 h, 144 hours): 150 µg/mL (≈ 447 µM)
MIC ([11]; CCM.F362, 288 h, 288 hours): 150 µg/mL (≈ 447 µM)
MIC ([12]; 72 hours): 75 µg/mL (≈ 224 µM)
MIC ([12]; 144 hours): 150 µg/mL (≈ 447 µM)
MIC ([12]; 288 hours): 150 µg/mL (≈ 447 µM)
MIC ([13]; CBS.34035, 72 h, 72 hours): 5 µg/mL (≈ 14.9 µM)
MIC ([13]; CBS.34035, 288 h, 288 hours): 25 µg/mL (≈ 74.5 µM)
activity against Sclerotinia sclerotiorum (Sclerotinia sclerotiorum): active
MIC ([14]; CBS.433, 24 h, 24 hours): 100 µg/mL (≈ 298 µM)
MIC ([14]; CBS.433, 48 h, 48 hours): 150 µg/mL (≈ 447 µM)
MIC ([15]; CBS.11326, 72 h, 72 hours): 50 µg/mL (≈ 149 µM)
MIC ([15]; CBS.11326, 144 h, 144 hours): 150 µg/mL (≈ 447 µM)
MIC ([15]; CBS.11326, 288 h, 288 hours): 150 µg/mL (≈ 447 µM)
MIC (Candida humicola; 24 hours): 5 µg/mL (≈ 14.9 µM)
MIC (Candida humicola; 48 hours): 25 µg/mL (≈ 74.5 µM)
MIC ([16]; 72 h): 10 µg/mL (≈ 29.8 µM)
MIC ([16]; 144 h): 25 µg/mL (≈ 74.5 µM)
MIC ([16]; 288 h): 25 µg/mL (≈ 74.5 µM)
activity against Cercospora beticola (Cercospora beticola): active
MIC ([17]; DSM.11778, 72 h, 72 hours): 100 µg/mL (≈ 298 µM)
MIC ([17]; DSM.11778, 144 h, 144 hours): 150 µg/mL (≈ 447 µM)
MIC ([17]; DSM.11778, 288 h, 288 hours): 150 µg/mL (≈ 447 µM)
MIC ([18]; CCM.F330, 72 h, 72 hours): 100 µg/mL (≈ 298 µM)
MIC ([18]; CCM.F330, 144 h, 144 hours): 150 µg/mL (≈ 447 µM)
MIC ([18]; CCM.F330, 288 h, 288 hours): 250 µg/mL (≈ 745 µM)
MIC ([19]; 72 hours): 50 µg/mL (≈ 149 µM)
MIC ([19]; 144 hours): 50 µg/mL (≈ 149 µM)
MIC ([19]; 288 hours): 50 µg/mL (≈ 149 µM)
activity against Verticillium dahlise (Verticillium dahlise): active
MIC ([20]; CBS.19646, 72 h, 72 hours): 50 µg/mL (≈ 149 µM)
MIC ([20]; CBS.19646, 144 h, 144 hours): 75 µg/mL (≈ 224 µM)
MIC ([20]; CBS.19646, 288 h, 288 hours): 75 µg/mL (≈ 224 µM)
